Molecules are shown by their SMILES. Where a name gives a salt, the structure may show the parent alone.

The target in the first assay is T1, DPP-1 (Cathepsin C) (Homo sapiens, UniProt P53634).
T1 construct: made in house
T1 sequence (P53634 25-463): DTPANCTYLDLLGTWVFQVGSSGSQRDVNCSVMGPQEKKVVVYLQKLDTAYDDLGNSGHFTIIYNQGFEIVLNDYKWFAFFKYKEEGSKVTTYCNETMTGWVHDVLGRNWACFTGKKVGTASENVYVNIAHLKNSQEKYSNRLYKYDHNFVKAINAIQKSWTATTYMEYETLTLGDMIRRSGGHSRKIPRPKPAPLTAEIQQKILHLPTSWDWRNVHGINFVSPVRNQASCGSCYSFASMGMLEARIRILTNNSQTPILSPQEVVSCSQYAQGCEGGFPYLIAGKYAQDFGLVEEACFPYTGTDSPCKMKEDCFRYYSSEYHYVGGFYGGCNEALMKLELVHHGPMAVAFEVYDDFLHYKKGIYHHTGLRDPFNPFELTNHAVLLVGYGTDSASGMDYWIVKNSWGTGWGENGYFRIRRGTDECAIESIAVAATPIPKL
The assay can be described thus: DPP-1 Inhibition Assay (in vitro), fluorogenic substrate GR-AMC. The format is biochemical. To be noted: IC50, recombinant human DPP-1 0.15 nM, 10 uM GR-AMC, pH 7.0, room temperature; average value where tested multiple times. The procedure:
Test compounds were assessed for DPP-1 (Cathepsin C) inhibitory activity using a fluorogenic substrate, GR-AMC (Glycine-Arginine-amino-4-methylcoumarin, Bachem, I-1215). The amount of amino-methylcoumarin released is proportional to the DPP-1 activity, and the reaction is monitored kinetically with a Molecular Devices plate reader using black 96-well plates.
All compounds were tested under room temperature conditions. The assay buffer consisted of 50 mM HEPES, pH 7.0, 100 mM NaCl, 2 mM glutathione (GSH), and 0.002% TWEEN 20. GSH and TWEEN 20 were added to the buffer fresh daily. Just prior to use, an in-house preparation of recombinant human DPP-1 (240 µM stock, MW 49.6 kD) was diluted 600-fold in assay buffer containing fresh 2 mM dithiothreitol (DTT) to activate the enzyme, then diluted into assay buffer (without DTT) 133-fold for a DPP-1 working solution of 3 nM. Test compounds were diluted in DMSO for 20x their final assay concentrations.
Additions to a 96-well black Costar 3915 plates were as follows: 90 µL of 11 µM GR-AMC, 5 µL test compound (followed by mixing), and 5 µL 3 nM DPP-1 to start the reaction. Fluorescent reactions were monitored kinetically at 360 nm excitation, 440 nm emission on a Molecular Devices Spectramax XPS reader. The Softmax Pro software of the reader determined the initial velocity of the selected data (the first 3-5 minutes of the reaction), and the best linear regression fit of the initial kinetic data. Final assay conditions were 0.15 nM DPP-1, 10 uM GR-AMC, 50 mM HEPES, pH 7.0, 100 mM NaCl, 2 mM GSH, 0.002% TWEEN 20, 1 uM DTT, 5.0 % DMSO. Initial velocity rates were plotted vs. test compound concentration by use of a four-parameter logistics equation (nonlinear regression, sigmoidal dose-response (variable slope), with fixed Hill (1.0) using GraphPad Prism® software for determination of DPP-1 IC50. Within-run assay coefficient of variation (CV) was generally <10%; between-run CV <20%.
Representative compounds of the present invention were tested according to the procedure as described above, with results as listed in Table 5, below. Table 5: DPP-1 Inhibition
For `CSC[C@H](N)C(=O)N1CCC(Cc2ccc(-c3ccccc3)cc2)(C(=O)NC2CCCCC2)CC1` [Compound 38], the half-inhibitory concentration (IC50) was 750 nM.
Same read-out and setting: the result for `CC[C@H](N)C(=O)N1CCC(Cc2ccc(C(F)(F)F)cc2)(C(=O)OCC2CCCCC2)CC1` [Compound 18] reads 5400 nM.
Same read-out and setting: then `CC[C@H](N)C(=O)N1CCC(Cc2cccc(-c3ccccc3)c2)(C(=O)OCC2CCCCC2)CC1` [Compound 29], with 9500 nM.
On to `N#CC1(c2cc(C(F)(F)F)cc(C(F)(F)F)c2)CCN(C(=O)C(N)Cc2cccs2)CC1` (stereo not shown) [Compound 118], for which the IC50 amounted to 3400 nM.
For the molecule `N[C@@H](Cc1cccs1)C(=O)N1CCC(Cc2ccc(-c3ccccc3)cc2)(C(=O)N2CCC3CCCCC3C2)CC1` (stereo partly shown) [Compound 7], the IC50 came out at 1300 nM.
On the same count and under the same terms, the result for `N[C@@H](Cc1c[nH]cn1)C(=O)N1CCC(Cc2cccc(-c3ccccc3)c2)(C(=O)OCC2CCCCC2)CC1` [Compound 31] reads 5800 nM.

The same assay, now with this note: recombinant human DPP-1 0.15 nM, 10 uM GR-AMC, pH 7.0, room temperature; average value where tested multiple times; read-out: IC50.
`N[C@@H](Cc1cccs1)C(=O)N1CCC(Cc2ccccc2C(=O)O)(C(=O)NC2CCCCC2)CC1` [Compound 80, 2-[1-(2-(S)-Amino-3-thiophen-2-yl-propionyl)-4-cyclohexylcarbamoyl-piperidin-4-ylmethyl]-benzoic acid hydrochloride]: the 50% inhibitory concentration (IC50) amounted to 220 nM.
On the same count and under the same terms, then `Cc1ccc(C2(C(=O)NC3CCC(O)CC3)CCN(C(=O)C(N)Cc3cccs3)CC2)cc1` (stereo not shown) [Compound 131], with 140 nM; and `C#CC[C@H](N)C(=O)N1CCC(Cc2ccc(-c3ccccc3)cc2)(C(=O)NC2CCCCC2)CC1` [Compound 35], with over 20000 nM.
On the same count and under the same terms, then `COc1cccc(-c2ccc(CC3(C(=O)NC4CCCCC4)CCN(C(=O)[C@@H](N)Cc4cccs4)CC3)cc2)c1` [Compound 47, (S)-1-(2-amino-3-(thiophen-2-yl)propanoyl)-N-cyclohexyl-4-((3'-methoxybiphenyl-4-yl)methyl)piperidine-4-carboxamide hydrochloride], with 34 nM.
`NC(=O)c1ccc(CC2(C(=O)NCC3CCCCC3)CCN(C(=O)[C@@H](N)Cc3cccs3)CC2)cc1` [Compound 116, (S)-1-(2-amino-3-(thiophen-2-yl)propanoyl)-4-(4-carbamoylbenzyl)-N-(cyclohexylmethyl)piperidine-4-carboxamide hydrochloride]: the concentration for half-maximal inhibition (IC50) is 50 nM.
Same read-out and setting: then `N[C@@H](Cc1cccs1)C(=O)N1CCC(Cc2ccc(-c3nnn[nH]3)cc2)(C(=O)NC2CCCCC2)CC1` [Compound 126, (S)-4-(4-(1H-tetrazol-5-yl)benzyl)-1-(2-amino-3-(thiophen-2-yl)propanoyl)-N-cyclohexylpiperidine-4-carboxamide hydrochloride], with 170 nM; and `NC(=O)c1ccc(CC2(C(=O)NC3CCC(O)CC3)CCN(C(=O)C(N)Cc3cccs3)CC2)cc1` (stereo not shown) [Compound 117], with 330 nM.
Still for that read-out and setting: the result for `CS(=O)(=O)CC[C@H](N)C(=O)N1CCC(Cc2ccc(I)cc2)(C(=O)NC2CCCCC2)CC1` [Compound 74] reads over 20000 nM; that for `COC(=O)C1CCC(NC(=O)C2(c3ccccc3)CCN(C(=O)C(N)Cc3cccs3)CC2)CC1` (stereo not shown) [Compound 113], 70 nM.
Still for that read-out and setting: then `CC(=O)Nc1ccc(CC2(C(=O)NC3CCCCC3)CCN(C(=O)[C@@H](N)Cc3cccs3)CC2)cc1` [Compound 90, (S)-4-(4-acetamidobenzyl)-1-(2-amino-3-(thiophen-2-yl)propanoyl)-N-cyclohexylpiperidine-4-carboxamide hydrochloride], with 49 nM.
Regarding `COC(=O)C1CCC(NC(=O)C2(c3ccccc3)CCN(C(=O)C(N)Cc3cccs3)CC2)CC1` (stereo not shown) [Compound 109], the IC50 is 25 nM.
Still for that read-out and setting: then `N[C@@H](Cc1cccs1)C(=O)N1CCC(C(=O)NCC2CCCCC2)(c2cc(C(F)(F)F)cc(C(F)(F)F)c2)CC1` [Compound 133, 1-(2-(S)-Amino-3-thiophen-2-yl-propionyl)-4-(3,5-bis-trifluoromethyl-phenyl)-piperidine-4-carboxylic acid cyclohexylmethylamide hydrochloride], with 67 nM; and `CN1CCC(CNC(=O)C2(c3ccccc3)CCN(C(=O)C(N)Cc3cccs3)CC2)CC1` (stereo not shown) [Compound 152], with 820 nM.
On the same count and under the same terms, then `N[C@@H](Cc1cccs1)C(=O)N1CCC(Cc2ccc(-c3ccccc3)cc2)(C(=O)NCC2CCOCC2)CC1` [Compound 6, (S)-1-(2-amino-3-(thiophen-2-yl)propanoyl)-4-(biphenyl-4-ylmethyl)-N-((tetrahydro-2H-pyran-4-yl)methyl)piperidine-4-carboxamide hydrochloride], with 74 nM; and `NC(C(=O)N1CCC(Cc2ccc(-c3ccccc3)cc2)(C(=O)NCC2CCCCC2)CC1)C(O)c1cccs1` (stereo not shown) [Compound 123], with 820 nM.
The same measure, in the same setting: then `N#Cc1ccc(CC2(C(=O)OCC3CCCCC3)CCN(C(=O)[C@@H](N)Cc3cccs3)CC2)cc1` [Compound 15, (S)-cyclohexylmethyl 1-(2-amino-3-(thiophen-2-yl)propanoyl)-4-(4-cyanobenzyl)piperidine-4-carboxylate hydrochloride], with 83 nM; and `CC[S+]([O-])CCC(N)C(=O)N1CCC(Cc2ccc(-c3ccccc3)cc2)(C(=O)NCC2CCCCC2)CC1` (stereo not shown) [Compound 107], with over 20000 nM.
On to `N[C@@H](Cc1cccs1)C(=O)N1CCC(C(=O)N[C@H]2CC[C@H](C(=O)O)CC2)(c2ccccc2)CC1` [Compound 111, 4-{[1-(2-(S)-Amino-3-thiophen-2-yl-propionyl)-4-phenyl-piperidine-4-carbonyl]-amino}-trans-cyclohexanecarboxylic acid], for which the IC50 amounted to 89 nM.
Consider `N#Cc1ccc(CC2(C(=O)NC3CCC(O)CC3)CCN(C(=O)C(N)Cc3cccs3)CC2)cc1` (stereo not shown) [Compound 125], for which the IC50 worked out at 160 nM.
On the same count and under the same terms, the result for `N[C@@H](Cc1cccs1)C(=O)N1CCC(Cc2ccc(NS(=O)(=O)c3ccccn3)cc2)(C(=O)NC2CCCCC2)CC1` [Compound 87, (S)-1-(2-amino-3-(thiophen-2-yl)propanoyl)-N-cyclohexyl-4-(4-(pyridine-2-sulfonamido)benzyl)piperidine-4-carboxamide hydrochloride] reads 20 nM; that for `NC(Cc1cccs1)C(=O)N1CCC(Cc2ccc(-c3nnn[nH]3)cc2)(C(=O)NC2CCC(O)CC2)CC1` (stereo not shown) [Compound 128], 690 nM.
As for `CN(C)C(=O)c1ccc(CC2(C(=O)NC3CCCCC3)CCN(C(=O)[C@@H](N)Cc3cccs3)CC2)cc1` [Compound 59, (S)-1-(2-amino-3-(thiophen-2-yl)propanoyl)-N-cyclohexyl-4-(4-(dimethylcarbamoyl)benzyl)piperidine-4-carboxamide hydrochloride], the IC50 was 86 nM.

These data come from EP2544684B1, “4,4-DISUBSTITUTED PIPERIDINE DERIVATIVES USEFUL AS INHIBITORS OF DIPEPTIDYL PEPTIDASE-1 (DPP-1)” (Janssen Pharmaceutica NV, priority 2010, dated 2011).
